The values that follow come from ChEMBL document CHEMBL1132177, “PTP1B inhibition and antihyperglycemic activity in the ob/ob mouse model of novel 11-arylbenzo[b]naphtho[2,3-d]furans and 11-arylbenzo[b]naphtho[2,3-d]thiophenes” (J Med Chem, 1999).

What is called pIC50 is the negative decadic logarithm of the IC50, by convention in mol/L. One may read the inhibition in vivo as how much of the control response was suppressed.

pIC50: −log10 of the molar value.

Experiment [1] addresses T1, Receptor-type tyrosine-protein phosphatase C (Homo sapiens, UniProt P08575).
T1 sequence (P08575 whole entry): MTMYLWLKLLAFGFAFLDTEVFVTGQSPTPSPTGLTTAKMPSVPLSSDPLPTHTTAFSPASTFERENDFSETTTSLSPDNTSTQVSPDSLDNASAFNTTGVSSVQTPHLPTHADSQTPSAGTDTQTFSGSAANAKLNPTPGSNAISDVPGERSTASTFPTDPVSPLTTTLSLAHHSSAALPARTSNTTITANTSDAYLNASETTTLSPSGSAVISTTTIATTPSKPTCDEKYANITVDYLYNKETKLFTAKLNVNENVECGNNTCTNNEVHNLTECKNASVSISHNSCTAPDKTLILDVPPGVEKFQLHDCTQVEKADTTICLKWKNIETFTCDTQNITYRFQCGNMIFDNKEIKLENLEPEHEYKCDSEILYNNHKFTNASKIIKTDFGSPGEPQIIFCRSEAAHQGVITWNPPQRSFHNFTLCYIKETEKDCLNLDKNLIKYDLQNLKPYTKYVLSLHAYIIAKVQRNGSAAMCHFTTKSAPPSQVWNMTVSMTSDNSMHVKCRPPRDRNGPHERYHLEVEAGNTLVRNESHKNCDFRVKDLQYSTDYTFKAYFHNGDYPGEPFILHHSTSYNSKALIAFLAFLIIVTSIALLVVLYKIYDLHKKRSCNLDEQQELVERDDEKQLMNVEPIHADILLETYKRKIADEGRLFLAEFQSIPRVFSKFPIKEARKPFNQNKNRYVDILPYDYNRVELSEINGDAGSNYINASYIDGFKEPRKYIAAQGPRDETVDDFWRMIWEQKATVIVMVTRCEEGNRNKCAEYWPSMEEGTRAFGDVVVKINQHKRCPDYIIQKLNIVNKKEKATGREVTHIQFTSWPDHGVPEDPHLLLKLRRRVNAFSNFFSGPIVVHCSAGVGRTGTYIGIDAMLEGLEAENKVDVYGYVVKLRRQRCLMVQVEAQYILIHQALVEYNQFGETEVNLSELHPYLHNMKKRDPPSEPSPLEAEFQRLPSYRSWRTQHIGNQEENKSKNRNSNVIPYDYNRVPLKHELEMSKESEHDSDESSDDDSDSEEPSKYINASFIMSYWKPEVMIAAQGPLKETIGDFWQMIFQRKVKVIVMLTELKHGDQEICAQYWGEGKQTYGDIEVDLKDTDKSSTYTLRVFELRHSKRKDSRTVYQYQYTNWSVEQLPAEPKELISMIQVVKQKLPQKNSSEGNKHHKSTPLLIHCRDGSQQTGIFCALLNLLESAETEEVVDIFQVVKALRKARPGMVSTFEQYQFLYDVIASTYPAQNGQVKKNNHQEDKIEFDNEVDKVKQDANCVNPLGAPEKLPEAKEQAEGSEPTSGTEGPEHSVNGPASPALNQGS
As to the kind of experiment: The compound was tested in vitro for the inhibitory activity against CD45 antigen (human PTPases.).

The target in experiment [2] is Dual specificity protein phosphatase 3 (Homo sapiens, UniProt P51452). As to the kind of experiment: The compound was tested in vitro for the inhibitory activity against Dual specificity protein phosphatase 3 (SH-PTP1) (human PTPases.).
Experiment [3] is described as follows: The compound was tested in vitro for the inhibitory activity against human HePTP360 (Hematopoietic protein tyrosine phosphatase).
Experiment [4] relates to Mus musculus. Description: The compound was tested in vivo(ob/ob mouse) for intestinal absorption against insulin, at a concentration of 100 mg/kg/day. Format: functional.
Experiment [5] has as its system Mus musculus. Description: The compound was tested in vivo(ob/ob mouse) for intestinal absorption against plasma glucose at a concentration of 100 mg/kg/day. Format: functional.
In experiment [6] the target is T2, Tyrosine-protein phosphatase non-receptor type 12 (Homo sapiens, UniProt Q05209).
T2 sequence (Q05209 whole entry): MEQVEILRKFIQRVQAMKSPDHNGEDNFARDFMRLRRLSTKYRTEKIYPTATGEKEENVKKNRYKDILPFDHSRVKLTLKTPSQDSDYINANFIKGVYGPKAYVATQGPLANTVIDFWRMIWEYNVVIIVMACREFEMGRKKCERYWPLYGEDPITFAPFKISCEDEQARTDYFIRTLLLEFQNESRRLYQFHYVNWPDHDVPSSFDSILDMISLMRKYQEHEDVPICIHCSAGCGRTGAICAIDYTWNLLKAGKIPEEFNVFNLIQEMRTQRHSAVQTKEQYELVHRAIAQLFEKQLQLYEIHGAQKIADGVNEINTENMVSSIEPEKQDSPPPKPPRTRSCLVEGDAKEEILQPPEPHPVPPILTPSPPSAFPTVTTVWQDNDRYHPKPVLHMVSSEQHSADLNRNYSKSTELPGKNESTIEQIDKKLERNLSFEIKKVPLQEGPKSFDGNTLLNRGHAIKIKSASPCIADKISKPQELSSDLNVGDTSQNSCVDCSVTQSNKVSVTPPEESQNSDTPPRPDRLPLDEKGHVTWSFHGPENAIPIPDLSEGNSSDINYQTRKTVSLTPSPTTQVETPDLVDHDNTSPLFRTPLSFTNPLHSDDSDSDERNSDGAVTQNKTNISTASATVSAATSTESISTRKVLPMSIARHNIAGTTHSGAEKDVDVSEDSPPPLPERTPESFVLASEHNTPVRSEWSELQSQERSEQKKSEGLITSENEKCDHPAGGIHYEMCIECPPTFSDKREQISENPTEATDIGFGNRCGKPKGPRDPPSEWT
As to the kind of experiment: The compound was tested in vitro for the inhibitory activity against Protein tyrosine phosphatase PEST (SH-PTP1) (human PTPases.).

The target of experiment [7] is Tyrosine-protein phosphatase non-receptor type 6 (Homo sapiens, UniProt P29350). As to the kind of experiment: The compound was tested in vitro for the inhibitory activity against Protein-tyrosine phosphatase 1C (SH-PTP1) (human PTPases.).
In experiment [8] the target is Receptor-type tyrosine-protein phosphatase alpha (Homo sapiens, UniProt P18433). Description: The compound was tested in vitro for the inhibitory activity against Protein-tyrosine phosphatase 1 alpha (LRP) (human PTPases.).
Experiment [9] addresses T3, Tyrosine-protein phosphatase non-receptor type 1 (Homo sapiens, UniProt P18031).
T3 sequence (P18031 whole entry): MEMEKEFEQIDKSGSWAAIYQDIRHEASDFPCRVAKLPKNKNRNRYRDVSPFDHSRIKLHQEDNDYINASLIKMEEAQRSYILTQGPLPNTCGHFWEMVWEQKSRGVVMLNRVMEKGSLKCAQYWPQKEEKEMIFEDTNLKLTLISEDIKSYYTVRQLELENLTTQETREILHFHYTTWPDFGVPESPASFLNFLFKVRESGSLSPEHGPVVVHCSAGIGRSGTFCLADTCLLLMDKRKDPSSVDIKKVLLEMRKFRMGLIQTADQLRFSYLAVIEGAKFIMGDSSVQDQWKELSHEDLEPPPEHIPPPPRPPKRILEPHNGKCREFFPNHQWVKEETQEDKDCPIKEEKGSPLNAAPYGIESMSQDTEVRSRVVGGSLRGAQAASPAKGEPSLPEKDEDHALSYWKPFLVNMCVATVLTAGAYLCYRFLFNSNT
As to the kind of experiment: The compound was tested in vitro for the inhibitory activity against Protein-tyrosine phosphatase 1B (human PTPases.).

The target in experiment [10] is Receptor-type tyrosine-protein phosphatase beta (Homo sapiens, UniProt P23467). Description: The compound was tested in vitro for the inhibitory activity against Protein-tyrosine phosphatase beta (SH-PTP1) (human PTPases.).
Experiment [11] has as its system Mus musculus. Description: The compound was tested in vivo(ob/ob mouse) for intestinal absorption against insulin, at a concentration of 10 mg/kg/day. The class given is functional.
Experiment [12] relates to Mus musculus. Description: The compound was tested in vivo(ob/ob mouse) for intestinal absorption against insulin, at a concentration of 25 mg/kg/day. The class given is functional.
The test system of experiment [13] is Mus musculus. As to the kind of experiment: The compound was tested in vivo(ob/ob mouse) for intestinal absorption against insulin, at a concentration of 50 mg/kg/day. Format: functional.
Experiment [14] relates to Mus musculus. As to the kind of experiment: The compound was tested in vivo(ob/ob mouse) for intestinal absorption against insulin, at a concentration of 75 mg/kg/day. The class given is functional.
Experiment [15] concerns Mus musculus. Description: The compound was tested in vivo(ob/ob mouse) for intestinal absorption against plasma glucose at a concentration of 10 mg/kg/day. Format: functional.
The subject of experiment [16] is Mus musculus. As to the kind of experiment: The compound was tested in vivo(ob/ob mouse) for intestinal absorption against plasma glucose at a concentration of 25 mg/kg/day. The class given is functional.
Experiment [17] has as its system Mus musculus. As to the kind of experiment: The compound was tested in vivo(ob/ob mouse) for intestinal absorption against plasma glucose at a concentration of 50 mg/kg/day. Format: functional.
Experiment [18] relates to Mus musculus. As to the kind of experiment: The compound was tested in vivo(ob/ob mouse) for intestinal absorption against plasma glucose at a concentration of 75 mg/kg/day. Format: functional.
Experiment [19] has as its system Mus musculus. Description: The compound was tested in vivo(ob/ob mouse) for intestinal absorption against insulin, at a concentration of 90 mg/kg/day. The class given is functional.
In experiment [20] the test system is Mus musculus. As to the kind of experiment: The compound was tested in vivo(ob/ob mouse) for intestinal absorption against plasma glucose at a concentration of 90 mg/kg/day. The class given is functional.
The test system of experiment [21] is Mus musculus. Description: The compound was tested in vivo(ob/ob mouse) for intestinal absorption against insulin, at a concentration of 5 mg/kg/day. The class given is functional.
For experiment [22], the system named is Mus musculus. Description: The compound was tested in vivo(ob/ob mouse) for intestinal absorption against plasma glucose at a concentration of 1 mg/kg/day. (i.p.). The settings on record: route intraperitoneal. Format: functional.
Experiment [23] deals with Mus musculus. As to the kind of experiment: The compound was tested in vivo(ob/ob mouse) for intestinal absorption against plasma glucose at a concentration of 5 mg/kg/day. Format: functional.
Experiment [24] deals with T3, Tyrosine-protein phosphatase non-receptor type 1. Description: The compound was tested in vitro for the inhibitory activity against hPTP1B (human PTPases.).
Experiment [25] shares this target. As to the kind of experiment: The compound was tested for inhibitory activity against recombinant Protein-tyrosine phosphatase 1B (human).
Experiment [26] deals with Mus musculus. As to the kind of experiment: The compound was tested in vivo(ob/ob mouse) for intestinal absorption against insulin, at a concentration of 200 mg/kg/day. Format: functional.
In experiment [27] the test system is Mus musculus. As to the kind of experiment: The compound was tested in vivo(ob/ob mouse) for intestinal absorption against plasma glucose at a concentration of 200 mg/kg/day. The class given is functional.

Sequence of Receptor-type tyrosine-protein phosphatase alpha (P18433 whole entry): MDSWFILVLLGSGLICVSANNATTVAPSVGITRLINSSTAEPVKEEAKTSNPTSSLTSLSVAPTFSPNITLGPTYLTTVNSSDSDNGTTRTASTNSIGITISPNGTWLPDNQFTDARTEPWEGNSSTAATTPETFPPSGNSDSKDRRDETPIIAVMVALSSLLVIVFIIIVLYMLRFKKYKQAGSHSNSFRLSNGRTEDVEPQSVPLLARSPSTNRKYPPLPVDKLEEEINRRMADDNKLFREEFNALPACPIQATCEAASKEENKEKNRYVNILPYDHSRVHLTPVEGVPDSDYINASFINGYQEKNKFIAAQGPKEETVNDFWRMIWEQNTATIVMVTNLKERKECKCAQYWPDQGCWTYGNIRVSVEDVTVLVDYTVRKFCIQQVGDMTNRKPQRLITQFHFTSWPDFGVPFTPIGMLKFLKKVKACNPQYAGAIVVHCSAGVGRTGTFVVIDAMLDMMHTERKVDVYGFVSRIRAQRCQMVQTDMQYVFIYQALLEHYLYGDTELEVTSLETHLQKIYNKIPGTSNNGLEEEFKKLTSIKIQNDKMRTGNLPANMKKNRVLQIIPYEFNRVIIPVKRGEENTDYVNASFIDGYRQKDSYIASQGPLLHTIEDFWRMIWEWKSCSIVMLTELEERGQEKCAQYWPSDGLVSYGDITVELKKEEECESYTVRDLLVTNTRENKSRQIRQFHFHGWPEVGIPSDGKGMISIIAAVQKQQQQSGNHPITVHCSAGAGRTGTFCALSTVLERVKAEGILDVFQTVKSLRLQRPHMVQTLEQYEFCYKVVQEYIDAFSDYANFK
Sequence of Dual specificity protein phosphatase 3 (P51452 whole entry): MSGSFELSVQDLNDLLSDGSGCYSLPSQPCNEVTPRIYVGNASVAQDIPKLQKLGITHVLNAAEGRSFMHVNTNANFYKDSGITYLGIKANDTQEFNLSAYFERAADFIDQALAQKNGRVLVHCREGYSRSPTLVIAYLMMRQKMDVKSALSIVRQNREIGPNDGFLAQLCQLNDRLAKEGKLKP
Sequence of Tyrosine-protein phosphatase non-receptor type 6 (P29350 whole entry): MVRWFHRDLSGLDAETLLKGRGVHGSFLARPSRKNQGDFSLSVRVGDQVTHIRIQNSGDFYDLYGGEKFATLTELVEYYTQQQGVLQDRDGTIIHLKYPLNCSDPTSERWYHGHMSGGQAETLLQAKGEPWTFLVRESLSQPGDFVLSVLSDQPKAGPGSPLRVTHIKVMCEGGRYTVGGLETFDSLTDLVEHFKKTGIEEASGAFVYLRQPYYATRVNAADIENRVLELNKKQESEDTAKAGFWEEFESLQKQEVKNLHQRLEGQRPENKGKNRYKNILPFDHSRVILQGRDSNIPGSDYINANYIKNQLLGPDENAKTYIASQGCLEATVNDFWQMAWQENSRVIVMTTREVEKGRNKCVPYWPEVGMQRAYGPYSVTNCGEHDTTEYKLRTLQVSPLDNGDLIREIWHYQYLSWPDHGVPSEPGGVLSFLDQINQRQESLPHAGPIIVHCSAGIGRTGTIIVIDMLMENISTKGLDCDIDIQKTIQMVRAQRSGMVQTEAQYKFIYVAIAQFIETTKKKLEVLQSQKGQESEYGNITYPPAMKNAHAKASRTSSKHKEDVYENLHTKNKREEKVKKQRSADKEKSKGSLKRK
Sequence of Receptor-type tyrosine-protein phosphatase beta (P23467 whole entry): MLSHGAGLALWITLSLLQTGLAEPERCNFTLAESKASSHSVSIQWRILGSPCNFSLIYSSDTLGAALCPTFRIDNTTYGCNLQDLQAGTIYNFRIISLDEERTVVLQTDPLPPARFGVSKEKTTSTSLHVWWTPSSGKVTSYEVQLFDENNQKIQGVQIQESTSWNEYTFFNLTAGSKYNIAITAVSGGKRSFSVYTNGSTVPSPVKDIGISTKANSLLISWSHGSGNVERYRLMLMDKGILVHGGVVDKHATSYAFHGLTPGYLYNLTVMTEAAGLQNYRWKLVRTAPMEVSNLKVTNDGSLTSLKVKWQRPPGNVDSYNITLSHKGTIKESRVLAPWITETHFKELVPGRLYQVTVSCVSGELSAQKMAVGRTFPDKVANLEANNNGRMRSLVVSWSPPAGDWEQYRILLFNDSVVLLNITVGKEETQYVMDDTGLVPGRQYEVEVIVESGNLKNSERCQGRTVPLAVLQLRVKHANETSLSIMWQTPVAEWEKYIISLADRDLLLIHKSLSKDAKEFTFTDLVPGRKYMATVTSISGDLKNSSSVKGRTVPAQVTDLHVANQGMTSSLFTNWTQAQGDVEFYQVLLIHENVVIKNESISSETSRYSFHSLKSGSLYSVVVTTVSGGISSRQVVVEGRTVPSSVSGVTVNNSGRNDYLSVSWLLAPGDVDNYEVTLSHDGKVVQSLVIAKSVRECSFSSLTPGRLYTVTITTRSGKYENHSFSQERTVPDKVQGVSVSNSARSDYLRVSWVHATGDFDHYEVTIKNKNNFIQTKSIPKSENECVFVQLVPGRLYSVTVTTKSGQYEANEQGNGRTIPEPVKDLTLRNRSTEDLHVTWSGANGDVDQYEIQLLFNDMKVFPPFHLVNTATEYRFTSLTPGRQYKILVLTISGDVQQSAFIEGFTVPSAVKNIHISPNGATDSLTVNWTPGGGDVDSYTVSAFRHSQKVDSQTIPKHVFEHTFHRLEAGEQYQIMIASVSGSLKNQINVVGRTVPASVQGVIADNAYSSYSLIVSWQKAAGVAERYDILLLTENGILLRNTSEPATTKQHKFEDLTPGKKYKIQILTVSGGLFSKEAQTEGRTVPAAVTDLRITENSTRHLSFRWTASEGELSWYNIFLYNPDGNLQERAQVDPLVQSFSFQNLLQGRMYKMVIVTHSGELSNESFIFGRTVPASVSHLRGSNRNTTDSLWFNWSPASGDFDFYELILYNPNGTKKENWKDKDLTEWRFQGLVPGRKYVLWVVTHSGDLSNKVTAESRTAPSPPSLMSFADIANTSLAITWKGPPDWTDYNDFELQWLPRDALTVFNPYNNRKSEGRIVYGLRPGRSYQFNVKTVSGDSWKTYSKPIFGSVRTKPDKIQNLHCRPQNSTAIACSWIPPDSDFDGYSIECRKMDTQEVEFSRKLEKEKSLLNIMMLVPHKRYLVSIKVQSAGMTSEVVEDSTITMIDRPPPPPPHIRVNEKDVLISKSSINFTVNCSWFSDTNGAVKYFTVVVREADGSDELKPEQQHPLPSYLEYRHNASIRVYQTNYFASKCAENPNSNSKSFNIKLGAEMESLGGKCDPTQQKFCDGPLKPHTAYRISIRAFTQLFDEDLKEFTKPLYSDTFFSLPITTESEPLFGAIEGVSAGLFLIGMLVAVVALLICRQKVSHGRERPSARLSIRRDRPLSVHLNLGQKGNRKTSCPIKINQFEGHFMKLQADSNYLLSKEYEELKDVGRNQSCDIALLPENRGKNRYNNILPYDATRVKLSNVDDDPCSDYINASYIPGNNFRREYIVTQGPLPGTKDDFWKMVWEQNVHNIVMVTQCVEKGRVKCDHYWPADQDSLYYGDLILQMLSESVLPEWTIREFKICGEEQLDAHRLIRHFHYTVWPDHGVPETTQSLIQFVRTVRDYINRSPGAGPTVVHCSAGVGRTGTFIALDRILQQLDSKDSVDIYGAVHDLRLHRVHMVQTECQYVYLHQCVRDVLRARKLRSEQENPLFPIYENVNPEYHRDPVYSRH

On to `O=C(O)COc1c(Br)cc(-c2c3ccccc3c(Br)c3sc4ccccc4c23)cc1Br`, for which the pIC50 is 5.04 in [1]; 5.10 in [2]; 5.57 in [3]; 5.64 in [6]; 5.30 in experiment [7]; 4.77 in [8]. The pIC50 in [9] is 6.41; in experiment [10], 6.22. Besides, the results for the Decrease in the experiment on Mus musculus [4] and with Mus musculus [5] were 61% and 23%, respectively.

In the case of `Oc1c(Br)cc(-c2c3ccccc3c(Br)c3sc4ccccc4c23)cc1Br`, the Decrease in the experiment with Mus musculus [4] and in the experiment with Mus musculus [5] was below 15% throughout.

In the case of `O=C(O)[C@@H](Cc1ccccc1)Oc1c(Br)cc(-c2c3ccccc3c(Br)c3sc4ccccc4c23)cc1Br`, the Decrease is below 15% in the experiment on Mus musculus [11]; 72% in the experiment with Mus musculus [12]; 71% in the experiment on Mus musculus [13]; 85% with Mus musculus [14]; 26% in the experiment on Mus musculus [15]; 26% in the experiment on Mus musculus [16]. Moreover, the Decrease is on record as 35% in the experiment on Mus musculus [17] and 50% in the experiment with Mus musculus [18].

As to `O=P(O)(O)COc1c(Br)cc(-c2c3ccccc3c(Br)c3sc4ccccc4c23)cc1Br`, the Decrease in the experiment with Mus musculus [19] and in the experiment with Mus musculus [20] was below 15% throughout.

Regarding `O=C(O)[C@@H](Cc1ccccc1)Oc1c(Br)cc(-c2c3ccccc3c(Br)c3oc4ccccc4c23)cc1Br`, the pIC50 in experiment [1] is 5.20; in experiment [2], 4.96; in [3], 5.68; in [6], 5.66; in experiment [7] it was 5.05; in experiment [8] it was 4.89. The pIC50 is 7.10 in experiment [24] and 6.30 in experiment [10]. Further, the Decrease in the experiment with Mus musculus [11] was 69%; in the experiment on Mus musculus [12], 86%; with Mus musculus [21], 56%; in the experiment with Mus musculus [15] it was 29%; in the experiment on Mus musculus [22], 38%; in the experiment with Mus musculus [16], 42%. For the same compound, the Decrease in the experiment on Mus musculus [23] is below 15%.

For the compound `O=C(O)[C@@H](CCN1C(=O)c2ccccc2C1=O)Oc1c(Br)cc(-c2c3ccccc3c(Br)c3sc4ccccc4c23)cc1Br`, the inhibition in vivo at 100 mg/kg/day in the experiment on Mus musculus [4] and with Mus musculus [5] was below 15% in each case. Also, the pIC50 in experiment [25] was 7.96.

`CC1(COc2ccc(CC3SC(=O)NC3=O)cc2)CCCCC1` (centres undefined) [CIGLITAZONE]: the inhibition in vivo at 100 mg/kg/day was determined as 39% with Mus musculus [4] and 43% in the experiment on Mus musculus [5].

Take `Cc1c(C)c2c(c(C)c1O)CCC(C)(COc1ccc(CC3SC(=O)NC3=O)cc1)O2` (centres undefined) [TROGLITAZONE]: the inhibition in vivo at 200 mg/kg/day was below 15% in the experiment on Mus musculus [26] and 34% in the experiment with Mus musculus [27].
